In publication PMC11019538, “Biophysics-Guided Lead Discovery of HBV Capsid Assembly Modifiers” (ACS Infectious Diseases, 2024):
Where two headings read alike, the source gives them in different places.

What was measured:
[1] = tested on: T lymphoblast CEM-CCRF (CEM) cells; assay: MTT cytotoxicity, CEM cells; format: cell-based, human
Experimental: (§1) Human peripheral blood mononuclear (PBM), T lymphoblast CEM-CCRF (herein referred to as CEM cells), African green monkey kidney (Vero), or human liver carcinoma (HepG2) cells were tested via MTT assay using the CellTiter 96 Non-Radioactive Cell Proliferation (Promega) kit as previously described.[63]

[2] = tested on: HBV DNA replication in HepAD38 cells; assay: HBV DNA replication inhibition assay in HepAD38 cells (7 days, PCR of supernatant DNA); format: cell-based, hepatitis B virus; conditions: HepAD38 cells; for HBV DNA inhibition (%) at 10 µM: first round of selected compounds
Experimental: HepAD38 cells were seeded at 50,000 cells/well in collagen-coated 96-well plates. […] The experiment lasted 7 days. On day 7, total DNA was purified from the supernatant using a commercially available kit (DNeasy 96 Blood & Tissue kit, Qiagen). The HBV DNA was amplified in a polymerase chain reaction assay using LightCycler 480 II (Roche), as previously described.[63] All samples were tested in duplicate.

[3] = tested on: African green monkey kidney (Vero) cells; assay: MTT cytotoxicity, Vero cells; format: cell-based; conditions: Vero cells
Experimental: as §1

[4] = tested on: human liver carcinoma (HepG2) cells; assay: MTT cytotoxicity, HepG2 cells; format: cell-based; conditions: HepG2 cells
Experimental: as §1

[5] = tested on: human peripheral blood mononuclear (PBM) cells; assay: MTT cytotoxicity, PBM cells; format: cell-based
Experimental: as §1

[6] = MTT cytotoxicity, CEM cells; format: cell-based, human; conditions: human
Experimental: as §1

[7] = MTT cytotoxicity, Vero cells; format: cell-based, African green monkey; conditions: African green monkey; Vero cells
Experimental: as §1

[8] = MTT cytotoxicity, HepG2 cells; format: cell-based, human; conditions: human; HepG2 cells
Experimental: as §1

[9] = MTT cytotoxicity, PBM cells; format: cell-based, human; conditions: human
Experimental: as §1

[10] = trial 1, read-out: EC50, trial 1
[11] = trial 2, read-out: EC50, trial 2

| SMILES | CC50 [1] | % HBV DNA Inh. at 10 μM, trial 1 ([2]; trial 1) | % HBV DNA Inh. at 10 μM, trial 2 ([2]; trial 2) | EC50 [2, 10] | EC50 [2, 11] | CC50 [3] | CC50 [4] | CC50 [5] | % cytotoxicity at 100 µM (MTT), CEM cells ([1]; 100 µM) | percent cytotoxicity (cell growth inhibition) at 100 µM ([5]; 100 µM) | HBV DNA inhibition (%) at 10 µM [2] | CC50 [6] | CC50 [7] | CC50 [8] | CC50 [9] |
| --- | --- | --- | --- | --- | --- | --- | --- | --- | --- | --- | --- | --- | --- | --- | --- |
| O=C(Cc1ccc(O)cc1)NCc1nc(-c2cccc(F)c2)c(-c2ccccn2)[nH]1 [GT-42] | 1.4 µM | < 1% | < 1% | > 10 µM | > 10 µM | 13 µM | 5.4 µM | 3.5 µM |  |  |  |  |  |  |  |
| COc1cc(OC)c2cc(-c3nc4ccccc4[nH]3)c(-c3ccc(C)cc3)nc2c1 [GT-35] | > 100 µM | 36% | 36% | > 10 µM | > 10 µM | 42 µM | 63 µM | > 100 µM | 49% | 14% |  |  |  |  |  |
| CC(N)c1ccc(-c2ccc(F)cc2)cc1 (centres unmarked) [GT-29] | 35.7 µM |  |  |  |  | 21 µM | 12.3 µM | 25 µM |  |  | < 1% |  |  |  |  |
| O=C(NCCn1ccnc1)c1ccccn1 [GT-26] | > 100 µM |  |  |  |  | > 100 µM | > 100 µM | > 100 µM |  |  | < 1% |  |  |  |  |
| NCc1ccc(N2CCC(CO)CC2)cc1 [GT-17] | > 100 µM |  |  |  |  | > 100 µM | > 100 µM | > 100 µM |  |  | < 1% |  |  |  |  |
| CCN1CCN(C(=O)c2ccc(-c3nc4ccccc4nc3-c3ccccc3)cc2)CC1 [GT-30] | 32 µM | < 1% | < 1% | > 10 µM | > 10 µM | 81 µM | 34 µM | 60 µM |  |  |  |  |  |  |  |
| O=C(NCCN1CCOCC1)c1ccc2nc(-c3ccccc3)c(-c3ccccc3)nc2c1 [GT-36] | 18 µM | 11% | 11% | > 10 µM | > 10 µM | 31 µM | 29 µM | 10 µM |  |  |  |  |  |  |  |
| C[C@@H]1C[C@@H]([C@H](O)CC2CC(=O)NC(=O)C2)C(=O)[C@@H](C)C1 [Cycloheximide, reference compound] |  |  |  |  |  |  |  |  |  |  |  | 0.2 µM | 0.2 µM | 0.3 µM | 0.9 µM |
| O=C(CCc1ccccc1)Nc1cccnc1 [GT-15] | > 100 µM |  |  |  |  | > 100 µM | > 100 µM | > 100 µM |  |  | < 1% |  |  |  |  |
| Cc1nc(-c2ccccc2)c(Cc2ccccc2O)c(=O)[nH]1 [GT-7] | > 100 µM |  |  |  |  | > 100 µM | > 100 µM | > 100 µM |  |  | < 1% |  |  |  |  |
| CCN(CC)CCCNc1cc(OC)c(Nc2ccccc2)c2cccnc12 [GT-49] | 9.4 µM | 45% | 45% | > 10 µM | > 10 µM | 16 µM | 17 µM | 27 µM |  |  |  |  |  |  |  |
